In ChEMBL document CHEMBL1201862, “PubChem BioAssay data set” (2004):
Calls of active or inactive are those of the source.

Legend:
[1] = Luminescence Cell-Based Dose Retest to Confirm Inhibitors of Cancer Stem Cells. [Related pubchem assays (depositor defined):AID2717, AID2721]; format: functional; details: Homo sapiens
[2] = biological target: Heat shock protein HSP 90-alpha (Homo sapiens, UniProt P07900); format: functional, organism-based
[3] = biological target: T1, Oxysterols receptor LXR-beta (Homo sapiens, UniProt P55055); format: functional, cell-based;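 note: agonist activity at LXR measured by a cell-based luminescence readout across a dose range, run as a counterscreen for daf-12 agonists; HEK293 cells with Gal4-LXR fusion and GAL4-driven luciferase reporter; potency for activation of Gal4-LXR reporter so compounds are agonists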
T1 sequence (P55055 whole entry): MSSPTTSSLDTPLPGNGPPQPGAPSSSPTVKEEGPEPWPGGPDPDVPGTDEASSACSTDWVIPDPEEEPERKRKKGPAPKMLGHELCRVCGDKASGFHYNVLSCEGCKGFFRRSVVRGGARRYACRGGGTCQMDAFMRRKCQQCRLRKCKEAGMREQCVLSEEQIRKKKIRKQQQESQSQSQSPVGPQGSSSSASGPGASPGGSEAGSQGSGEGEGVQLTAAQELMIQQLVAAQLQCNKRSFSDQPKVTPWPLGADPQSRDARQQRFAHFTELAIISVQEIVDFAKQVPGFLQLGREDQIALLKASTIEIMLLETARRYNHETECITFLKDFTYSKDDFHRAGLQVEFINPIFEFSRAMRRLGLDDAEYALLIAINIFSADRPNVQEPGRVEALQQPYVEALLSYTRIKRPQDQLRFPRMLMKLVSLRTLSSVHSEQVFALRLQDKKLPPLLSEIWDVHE

[4] = viability loss in CEM21 cells – cell-based, CellTiter-Glo luminescence, cherry-picked, cytotoxicity control for viral fusion inhibitor project, dose response (AID 652042); format: functional;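 note: potency for signal decrease meaning cytotoxicity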
[5] = off-target signal loss in HeLa-CEM21 co-culture – HeLa F-luc CTL cells, cherry-picked, counter-screen for HIV-1 Env fusion inhibitor project, dose response (AID 652040); format: functional, cell-based;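 note: potency for signal decrease marking cytotoxic or nonspecific inhibition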
[6] = HIV-1 AD8 envelope cell-cell fusion blockers – cherry-pick, dose response (AID 652062); format: functional, cell-based;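 note: luciferase signal from cell-cell fusion driven by HIV-1 clade B AD8 Env; potency is for inhibitors of fusion seen as a drop in luminescence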
[7] = blockers of HIV-1 envelope-mediated cell-cell fusion – cherry-pick, dose response (AID 652057); format: functional, cell-based
[8] = blockers of HIV-1 ZM109 envelope-driven cell-cell fusion – HeLa effector, CEM target cells, luciferase, cherry-pick, dose response (AID 652058); format: functional, cell-based;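 note: luciferase signal from HIV-1 Env mediated cell-cell fusion of effector and target cells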
[9] = general cell-killing toxicity readout – plate reader, dry powder samples, cytotoxicity control for PAX8 inhibitor project, dose response (AID 743021); format: functional, cell-based
Paired box protein Pax-8 = Paired box protein Pax-8 (Homo sapiens, UniProt Q06710); test: PAX8 transcriptional activity inhibition in RMG-I – RMG-I cells, luciferase, cherry-pick, dose response (AID 687027); format: functional, cell-based;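 note: luciferase reporter driven by Pax8 target thyroperoxidase promoter measured by SteadyGlo luminescence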
[10] = OVCAR8 cell viability loss – plate reader, dry powder samples, PAX8 project, dose response (AID 743197); format: functional, cell-based; details: OVCAR-8
[11] = OVCAR-3 cell viability loss – plate reader, dry powder samples, PAX8 inhibitor project, dose response (AID 743044); format: functional, cell-based
[12] = biological target: T2, DNA repair protein RAD52 homolog (Homo sapiens, UniProt P43351); format: functional, biochemical
T2 sequence (P43351 whole entry): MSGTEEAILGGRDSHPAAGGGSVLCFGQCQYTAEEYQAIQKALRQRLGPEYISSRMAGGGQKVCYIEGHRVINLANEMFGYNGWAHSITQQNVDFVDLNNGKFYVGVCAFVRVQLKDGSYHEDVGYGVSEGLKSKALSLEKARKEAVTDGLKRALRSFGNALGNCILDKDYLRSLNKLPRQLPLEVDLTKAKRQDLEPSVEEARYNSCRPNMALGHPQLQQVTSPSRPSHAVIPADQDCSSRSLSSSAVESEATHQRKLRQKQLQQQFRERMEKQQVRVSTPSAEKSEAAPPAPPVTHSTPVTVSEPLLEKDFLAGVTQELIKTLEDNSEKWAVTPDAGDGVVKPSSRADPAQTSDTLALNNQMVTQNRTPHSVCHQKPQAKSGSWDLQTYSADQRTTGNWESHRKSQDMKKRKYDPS

[13] = biological target: T3, DNA repair and recombination protein RAD54-like (Homo sapiens, UniProt Q92698); test: RAD54 Holliday junction migration blockers – biochemical, fluorescence, cherry-picked samples, dose series, confirmation (AID 651657); format: functional
T3 sequence (Q92698 whole entry): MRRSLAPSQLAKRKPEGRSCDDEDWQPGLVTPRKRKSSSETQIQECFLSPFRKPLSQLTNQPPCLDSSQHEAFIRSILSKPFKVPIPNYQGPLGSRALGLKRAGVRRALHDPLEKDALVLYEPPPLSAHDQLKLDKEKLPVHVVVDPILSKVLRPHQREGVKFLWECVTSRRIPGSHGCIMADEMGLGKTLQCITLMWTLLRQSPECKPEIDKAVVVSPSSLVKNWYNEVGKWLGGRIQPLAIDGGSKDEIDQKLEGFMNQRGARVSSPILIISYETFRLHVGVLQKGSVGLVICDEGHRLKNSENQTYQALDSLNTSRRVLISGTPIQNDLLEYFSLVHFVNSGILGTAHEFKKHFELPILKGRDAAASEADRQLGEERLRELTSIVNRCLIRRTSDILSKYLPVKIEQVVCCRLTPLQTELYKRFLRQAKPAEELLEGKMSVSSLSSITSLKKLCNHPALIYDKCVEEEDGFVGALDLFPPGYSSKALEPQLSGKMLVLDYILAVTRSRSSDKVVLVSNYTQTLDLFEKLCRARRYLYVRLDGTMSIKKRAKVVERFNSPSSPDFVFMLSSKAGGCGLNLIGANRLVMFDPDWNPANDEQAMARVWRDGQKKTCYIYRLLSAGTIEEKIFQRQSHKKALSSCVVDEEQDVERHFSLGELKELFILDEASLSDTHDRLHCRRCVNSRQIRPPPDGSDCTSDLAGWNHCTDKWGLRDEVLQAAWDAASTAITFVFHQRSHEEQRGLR

[14] = biological target: T4, Tyrosyl-DNA phosphodiesterase 2 (Homo sapiens, UniProt O95551); test: potency against TDP2 phosphodiesterase activity – biochemical, epi absorbance, IC50, dose response (AID 743297)
T4 sequence (O95551 whole entry): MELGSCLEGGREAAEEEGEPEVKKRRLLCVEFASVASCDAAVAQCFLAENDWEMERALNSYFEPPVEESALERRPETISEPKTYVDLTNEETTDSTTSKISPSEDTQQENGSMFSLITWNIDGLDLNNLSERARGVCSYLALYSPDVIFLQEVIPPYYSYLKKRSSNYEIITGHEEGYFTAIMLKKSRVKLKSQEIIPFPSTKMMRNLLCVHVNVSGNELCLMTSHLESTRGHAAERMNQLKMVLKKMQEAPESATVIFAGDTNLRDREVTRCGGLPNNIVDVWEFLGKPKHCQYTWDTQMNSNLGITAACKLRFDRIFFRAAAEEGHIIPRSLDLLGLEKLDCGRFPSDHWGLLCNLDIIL

Aminopeptidase N = biological target: T5, Aminopeptidase N (Plasmodium falciparum FcB1/Columbia, UniProt O96935); test: malaria alanyl aminopeptidase activity blockers – biochemical, fluorogenic H-Leu-NHMec substrate, 1536-well (AID 1445); set-up: species or system Plasmodium falciparum 3D7, 3D7
T5 sequence (O96935 whole entry): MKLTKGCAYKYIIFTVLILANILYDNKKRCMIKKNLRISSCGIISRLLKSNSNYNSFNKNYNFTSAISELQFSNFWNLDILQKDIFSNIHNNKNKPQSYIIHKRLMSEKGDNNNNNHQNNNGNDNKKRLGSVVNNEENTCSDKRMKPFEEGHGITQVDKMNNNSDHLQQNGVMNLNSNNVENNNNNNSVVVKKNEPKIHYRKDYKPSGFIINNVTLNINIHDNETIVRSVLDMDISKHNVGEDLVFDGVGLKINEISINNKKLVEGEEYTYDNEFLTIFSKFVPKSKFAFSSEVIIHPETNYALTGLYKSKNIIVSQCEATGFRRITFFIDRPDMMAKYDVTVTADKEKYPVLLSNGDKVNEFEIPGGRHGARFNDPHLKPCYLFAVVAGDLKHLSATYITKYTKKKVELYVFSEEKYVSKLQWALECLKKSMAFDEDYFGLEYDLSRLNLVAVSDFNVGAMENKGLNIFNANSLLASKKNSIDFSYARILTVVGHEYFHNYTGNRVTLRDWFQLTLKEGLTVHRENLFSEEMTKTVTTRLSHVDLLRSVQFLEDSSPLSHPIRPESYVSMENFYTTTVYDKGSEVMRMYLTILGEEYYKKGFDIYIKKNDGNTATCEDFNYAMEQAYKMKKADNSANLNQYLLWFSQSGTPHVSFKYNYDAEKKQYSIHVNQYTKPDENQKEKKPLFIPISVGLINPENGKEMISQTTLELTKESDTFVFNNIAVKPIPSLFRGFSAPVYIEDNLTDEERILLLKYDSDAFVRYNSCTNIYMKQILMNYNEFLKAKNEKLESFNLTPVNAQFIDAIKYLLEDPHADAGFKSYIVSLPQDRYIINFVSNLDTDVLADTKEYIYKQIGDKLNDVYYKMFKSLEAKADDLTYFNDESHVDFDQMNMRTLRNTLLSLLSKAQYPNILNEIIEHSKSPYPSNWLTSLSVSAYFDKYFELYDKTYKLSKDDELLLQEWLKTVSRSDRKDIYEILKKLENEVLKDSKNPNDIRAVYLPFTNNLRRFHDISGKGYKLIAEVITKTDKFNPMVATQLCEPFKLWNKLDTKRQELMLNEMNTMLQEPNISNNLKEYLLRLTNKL

H9c2 = test: cells; format: functional, cell-based; details: Rattus norvegicus, H9c2, Myocardium
[15] = biological target: Disintegrin and metalloproteinase domain-containing protein 17 (Homo sapiens, UniProt P78536); test: exosite inhibitors of ADAM17, dose response, biochemical (AID 743260)
[16] = inhibition of ADAM10 peptide cleavage – biochemical, FRET peptide substrate, recombinant human ADAM10, selectivity assay for ADAM17 exosite inhibitor project, dose response (AID 743259);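 note: ADAM10 enzyme cleaving a FRET peptide substrate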
[17] = loss of viability in HepG2 cells – cell-based, CellTiter-Glo, cherry-picked, cytotoxicity control for Shn3 inhibitor project, dose response (AID 624134); format: functional
[18] = reduction of Shn3 3'UTR-driven luciferase in osteoblasts – cell-based, Clone20 osteoblasts, firefly luciferase, cherry-picked, dose response (AID 624132); format: functional;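 note: firefly luciferase luminescence from reporter carrying the Shn3 3'UTR in osteoblasts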
[19] = blockade of melanocortin 4 receptor signaling – cell-based, plate reader, cherry pick, counter-screen for LGR2 antagonist project, dose response (AID 743444); format: functional;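 note: transfected HEK 293 cells stimulated with alpha-MSH peptide; potency of inhibitors of the alpha-MSH evoked signal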
[20] = A549 cell cytotoxicity, dose response, cytotoxicity control, plate reader, cherry-pick, antagonist series (AID 743412); format: functional, cell-based
[21] = blockers of bursicon-stimulated LGR2 cAMP reporter – cell-based, HEK293, CRE-luciferase reporter, cherry pick, set 2, dose response (AID 743343); format: functional;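 note: transfected cells were stimulated with diluted bursicon conditioned medium after compound addition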
[22] = toxicity toward HepG2 liver cells – cell-based, plate reader, cherry-pick, antagonist series, cytotoxicity control, dose response (AID 743416); format: functional
[23] = viability loss in HEK293 cells – cell-based, plate reader, cherry-picked samples, cytotoxicity control, dose response (AID 743446); format: functional
Cytochrome P450 2C9 = Cytochrome P450 2C9 (Homo sapiens, UniProt P11712)
[24] = biological target: Cyclin-dependent kinase 5/CDK5 activator 1 (Homo sapiens, UniProt Q00535); test: blockade of human CDK5 activity – biochemical, cherry-picked samples, set 2, dose response (AID 504545)
Sequence of Cyclin-dependent kinase 5/CDK5 activator 1 (Q00535 whole entry): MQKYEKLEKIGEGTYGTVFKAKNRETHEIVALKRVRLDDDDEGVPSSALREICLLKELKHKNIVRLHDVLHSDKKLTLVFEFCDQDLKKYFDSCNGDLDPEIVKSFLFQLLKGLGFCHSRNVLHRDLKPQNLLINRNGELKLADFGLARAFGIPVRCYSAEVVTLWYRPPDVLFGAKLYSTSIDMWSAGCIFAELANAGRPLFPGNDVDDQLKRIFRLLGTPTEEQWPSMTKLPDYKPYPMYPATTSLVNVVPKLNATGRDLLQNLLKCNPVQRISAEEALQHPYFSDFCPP
Sequence of Cyclin-dependent kinase 5/CDK5 activator 1 (Q15078 whole entry, further chain): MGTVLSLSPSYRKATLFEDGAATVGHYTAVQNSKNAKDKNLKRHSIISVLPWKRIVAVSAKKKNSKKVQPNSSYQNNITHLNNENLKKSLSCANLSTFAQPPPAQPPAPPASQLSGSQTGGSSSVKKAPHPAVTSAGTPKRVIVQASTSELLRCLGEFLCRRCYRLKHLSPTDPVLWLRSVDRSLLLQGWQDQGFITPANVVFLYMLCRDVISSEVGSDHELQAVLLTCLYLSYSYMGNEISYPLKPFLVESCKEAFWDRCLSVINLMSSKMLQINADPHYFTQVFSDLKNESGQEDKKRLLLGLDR

Sequence of Paired box protein Pax-8 (Q06710 whole entry): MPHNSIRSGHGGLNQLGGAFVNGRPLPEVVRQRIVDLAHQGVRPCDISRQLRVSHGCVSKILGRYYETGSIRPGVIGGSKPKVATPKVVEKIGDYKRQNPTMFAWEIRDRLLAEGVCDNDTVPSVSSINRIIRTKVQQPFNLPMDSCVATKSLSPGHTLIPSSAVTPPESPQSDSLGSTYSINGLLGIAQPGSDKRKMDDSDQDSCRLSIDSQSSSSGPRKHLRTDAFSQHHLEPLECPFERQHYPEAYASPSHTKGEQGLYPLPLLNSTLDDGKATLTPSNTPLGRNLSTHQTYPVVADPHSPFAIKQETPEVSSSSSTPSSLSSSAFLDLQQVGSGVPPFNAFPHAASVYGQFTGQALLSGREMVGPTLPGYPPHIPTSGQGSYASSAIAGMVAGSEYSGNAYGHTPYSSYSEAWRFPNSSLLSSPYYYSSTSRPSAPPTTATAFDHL
Sequence of Cytochrome P450 2C9 (P11712 whole entry): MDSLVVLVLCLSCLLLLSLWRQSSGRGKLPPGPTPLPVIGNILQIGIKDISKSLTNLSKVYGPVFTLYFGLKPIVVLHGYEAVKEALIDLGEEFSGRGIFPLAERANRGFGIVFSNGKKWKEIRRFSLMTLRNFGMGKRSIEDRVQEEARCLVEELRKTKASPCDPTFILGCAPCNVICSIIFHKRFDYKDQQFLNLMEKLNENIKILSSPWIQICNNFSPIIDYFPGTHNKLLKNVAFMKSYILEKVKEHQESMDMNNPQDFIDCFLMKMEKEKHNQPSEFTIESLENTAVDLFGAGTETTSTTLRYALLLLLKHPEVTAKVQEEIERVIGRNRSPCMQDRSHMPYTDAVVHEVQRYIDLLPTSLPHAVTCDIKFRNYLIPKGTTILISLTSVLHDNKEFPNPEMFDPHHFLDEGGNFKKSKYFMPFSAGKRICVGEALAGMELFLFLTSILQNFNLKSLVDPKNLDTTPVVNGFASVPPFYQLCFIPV
Sequence of Disintegrin and metalloproteinase domain-containing protein 17 (P78536 whole entry, the tested form may be a part): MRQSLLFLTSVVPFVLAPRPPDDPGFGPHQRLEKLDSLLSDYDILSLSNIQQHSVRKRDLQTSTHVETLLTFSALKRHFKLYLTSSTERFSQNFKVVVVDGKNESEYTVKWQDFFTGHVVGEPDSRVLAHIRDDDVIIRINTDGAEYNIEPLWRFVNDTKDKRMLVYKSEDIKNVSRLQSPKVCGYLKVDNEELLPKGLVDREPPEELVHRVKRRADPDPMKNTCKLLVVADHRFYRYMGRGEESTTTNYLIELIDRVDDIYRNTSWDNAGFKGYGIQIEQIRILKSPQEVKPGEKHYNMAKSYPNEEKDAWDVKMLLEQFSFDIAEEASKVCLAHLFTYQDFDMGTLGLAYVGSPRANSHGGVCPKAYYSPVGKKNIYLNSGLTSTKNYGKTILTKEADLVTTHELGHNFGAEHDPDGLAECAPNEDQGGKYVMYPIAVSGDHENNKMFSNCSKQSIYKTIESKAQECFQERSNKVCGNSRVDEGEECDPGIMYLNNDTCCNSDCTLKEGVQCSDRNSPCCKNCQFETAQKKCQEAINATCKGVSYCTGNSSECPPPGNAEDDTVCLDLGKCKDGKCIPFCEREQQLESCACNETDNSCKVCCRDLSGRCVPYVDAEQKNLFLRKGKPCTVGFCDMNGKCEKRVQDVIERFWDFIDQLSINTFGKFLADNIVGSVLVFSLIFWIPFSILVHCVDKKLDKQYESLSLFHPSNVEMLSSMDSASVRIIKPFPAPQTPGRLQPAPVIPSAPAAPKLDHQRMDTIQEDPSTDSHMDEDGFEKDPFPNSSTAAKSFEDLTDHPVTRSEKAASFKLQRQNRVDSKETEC

## Cc1cc(N=Nc2ccc3ccccc3c2)ccc1O
[1]
  AC50: 3.23 µM (active)
[2]
  AC50: 3.92 µM (active)
[3]
  EC50: > 67.6 µM (inactive)

## Cc1cc(OCC(O)CNC(C)c2ccccc2)ccc1C(C)C (stereo not drawn)
[4]
  AC50: 13.3 µM (active)
[5]
  AC50: 3.99 µM (active)
[6]
  AC50: 7.78 µM (active)
[7]
  AC50: 2.75 µM (active)
[8]
  AC50: 1.85 µM (active)

## COc1ccc(S(=O)(=O)N(C)C[C@H]2OCCCC[C@H](C)Oc3ccc(NS(=O)(=O)c4ccc(F)cc4)cc3C(=O)N([C@@H](C)CO)C[C@@H]2C)cc1
[9]
  AC50: 56.8 µM (active)
Paired box protein Pax-8
  AC50: 4.67 µM (active)
[10]
  AC50: 46.1 µM (active)
[11]
  AC50: 21.5 µM (active)

## CC(=O)Nc1cc(-c2ccc(N3CCN(C)CC3)cc2)cn2c(-c3ccc(S(C)(=O)=O)cc3)cnc12
[12]
  AC50: 4.37 µM (active)
[13]
  AC50: 20.3 µM (active)

## CCCCn1c(NS(=O)(=O)c2ccccc2)c(C(=O)OCC)c2nc3ccccc3nc21
[14]
  IC50: > 128 µM (inactive)
Aminopeptidase N
  IC50: 74.4 µM (active)

## COc1ccc(OC)c(NC(=O)COC(=O)c2c3c(nc4ccccc24)CCCC3)c1
H9c2
  IC50: > 79 µM (inactive)
[15]
  IC50: > 69.5 µM (inactive)
[16]
  IC50: > 69.5 µM (inactive)
[17]
  AC50: > 70 µM (inactive)
[18]
  AC50: 8.67 µM (active)

## CC(C)Oc1cc(O)c2c(=O)c(-c3ccc(O)cc3)coc2c1
[3]
  EC50: > 67.6 µM (inactive)

## COc1ccc(CC(=O)Nc2cccc(-c3nnc(-c4ccc(C)cc4)o3)c2)cc1OC
[19]
  AC50: 8.14 µM (active)
[20]
  AC50: 33.4 µM (active)
[21]
  AC50: 7.65 µM (active)
[22]
  AC50: 30.3 µM (active)
[23]
  AC50: 10.7 µM (active)

## Cc1ccc(S(=O)(=O)Nc2ccc3c(c2)C(=O)N([C@H](C)CO)C[C@H](C)[C@@H](CN(C)S(=O)(=O)c2ccc(Cl)cc2)OCCCC[C@H](C)O3)cc1
Paired box protein Pax-8
  AC50: 3.2 µM (active)
[10]
  AC50: > 70 µM (inactive)
[11]
  AC50: 14.4 µM (active)

## Cc1nc2sc(-c3ccccc3)nn2c(=O)c1Br
[3]
  EC50: > 67.5 µM (inactive)

## CC1(C)Cc2c(ccc3ccccc23)C(=O)N1
[4]
  AC50: 47.6 µM (active)
Cytochrome P450 2C9
  AC50: inconclusive
[5]
  AC50: 14.1 µM (active)
[24]
  AC50: 22.4 µM (active)
[6]
  AC50: 2.95 µM (active)
[7]
  AC50: 4.84 µM (active)
[8]
  AC50: 8.55 µM (active)
